In the supplement of paper PMC10307832:

How the values were obtained:
Assay in all cases: relative viability (nuclei count vs DMSO), 5 days (fraction); higher = more cells survive
Obatoclax + Foretinib = compound: COC1=CC(c2cc3ccccc3[nH]2)=N/C1=C\c1[nH]c(C)cc1C [Obatoclax] + COc1cc2c(Oc3ccc(NC(=O)C4(C(=O)Nc5ccc(F)cc5)CC4)cc3F)ccnc2cc1OCCCN1CCOCC1 [Foretinib] (partner 0.25 µM)
In short: (§1)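 A single step with final 0.05% Triton X-100, 1% formaldehyde and 1 ug/ml Hoechst fixed the cells and stained nuclei 5 days after treatment. Lung cancer cell lines in 1536-well plates had been treated by pin tool the day after seeding with one drug alone or a fixed anchor-drug dose plus five library-drug doses (not always all listed) in √10 steps, and nuclei were counted on 4× images. Relative viability is the ratio of nuclei in treated wells to nuclei in vehicle wells, taken as the median of duplicate plates.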

[1] = compound: CC1=CC(=NN1)NC2=CC(=NC(=N2)/C=C/C3=CC=CC=C3)N4CCN(CC4)C + Cc1nc(Nc2ncc(C(=O)Nc3c(C)cccc3Cl)s2)cc(N2CCN(CCO)CC2)n1 [Dasatinib] (partner 0.075 µM)
In short: as §1

Bortezomib + Navitoclax = compound: CC(C)C[C@H](NC(=O)[C@H](Cc1ccccc1)NC(=O)c1cnccn1)B(O)O [Bortezomib] + CC1(C)CCC(c2ccc(Cl)cc2)=C(CN2CCN(c3ccc(C(=O)NS(=O)(=O)c4ccc(N[C@H](CCN5CCOCC5)CSc5ccccc5)c(S(=O)(=O)C(F)(F)F)c4)cc3)CC2)C1 [Navitoclax] (partner 0.5 µM)
In short: as §1

Bortezomib + Decitabine = compound: CC(C)C[C@H](NC(=O)[C@H](Cc1ccccc1)NC(=O)c1cnccn1)B(O)O [Bortezomib] + Nc1ncn([C@H]2C[C@H](O)[C@@H](CO)O2)c(=O)n1 [Decitabine] (partner 2 µM)
In short: as §1

Cell Line	relative viability (Obatoclax + Foretinib; first compound 0.01 µM)	relative viability (Obatoclax + Foretinib; first compound 0.03162 µM)	relative viability (Obatoclax + Foretinib; first compound 0.1 µM)	relative viability (Obatoclax + Foretinib; first compound 0.3162 µM)	relative viability (Obatoclax + Foretinib; first compound 1 µM)	relative viability ([1]; first compound 0.08 µM)	relative viability ([1]; first compound 0.253 µM)	relative viability ([1]; first compound 0.8 µM)	relative viability ([1]; first compound 2.53 µM)	relative viability ([1]; first compound 8 µM)	relative viability (Bortezomib + Navitoclax; first compound 0.0002 µM)	relative viability (Bortezomib + Navitoclax; first compound 0.000632 µM)	relative viability (Bortezomib + Navitoclax; first compound 0.002 µM)	relative viability (Bortezomib + Navitoclax; first compound 0.006325 µM)	relative viability (Bortezomib + Navitoclax; first compound 0.02 µM)	relative viability (Bortezomib + Decitabine; first compound 0.0002 µM)	relative viability (Bortezomib + Decitabine; first compound 0.000632 µM)	relative viability (Bortezomib + Decitabine; first compound 0.002 µM)	relative viability (Bortezomib + Decitabine; first compound 0.006325 µM)	relative viability (Bortezomib + Decitabine; first compound 0.02 µM)
NCI-H1650	1.12	1.06	1.18	0.91	0.558	0.376	0.288	0.37	0.125	0.0926	1.17	1.17	0.191	0.119	0.106	0.488	0.484	0.182	0.137	0.128
NCI-H1944	0.877	0.772	0.894	0.942	0.933	0.23	0.209	0.197	0.147	0.107	1.06	0.992	1.12	1.05	0.887	0.414	0.429	0.461	0.402	0.248
COR-L 105	1.01	1.19	1.05	0.534	0.454	0.388	0.369	0.302	0.207	0.153	0.745	0.786	0.684	0.291	0.253	0.695	0.614	0.526	0.33	0.278
LU99A	0.875	0.792	0.774	0.619	0.714	0.546	0.547	0.475	0.22	0.146	0.824		0.945	0.384	0.132	0.841	0.88	0.885	0.825	0.202
H3255	0.826	0.802	0.891	1.05	0.996	0.346	0.347	0.352	0.427	0.242	0.533	0.557	0.557	0.105	0.0892	0.587	0.583	0.316	0.192	0.204
NCI-H1734	0.81	0.863	0.9	0.785	0.628	0.4	0.454	0.464	0.257	0.111	0.86	0.872	0.662	0.112	0.0892	0.552	0.503	0.462	0.12	0.0968
NCI-H1915	1.07	1.09	1.06	1.06	1.07	0.347	0.27	0.28	0.16	0.0845	0.676	0.764	0.799	0.0915	0.0811	0.266	0.256	0.254	0.14	0.059
NCI-H2009	1.24	1.25	1.23	0.477	0.333	0.325	0.307	0.329	0.15	0.0844	1.16	1.1	1.15	0.0798	0.0607	0.392	0.431	0.388	0.101	0.0757
NCI-H1651	0.766	0.734	0.774	0.47	0.42	0.423	0.398	0.407	0.171	0.116	1.17	0.958	0.263	0.14	0.101	0.659	0.732	0.619	0.665	0.172
HOP-62	1.16	0.933	1.11	1.04	1.06	0.605	0.72	0.772	0.355	0.197	1.17	1.05	0.747	0.243	0.074	0.232	0.204	0.223	0.106	0.0681
NCI-H3122	0.97	0.783	0.912	0.925	0.947	0.9	0.633	0.811	0.551	0.176	1.01	1.04	1.06	0.625	0.167	0.439	0.438	0.403	0.34	0.129
NCI-H1395	0.938	0.702	0.929	1.01	0.766	0.424	0.409	0.4	0.344	0.28	1.27	1.52	0.448	0.39	0.345	0.774	0.702	0.431	0.287	0.297
PC-14	0.858	0.945	0.917	0.872	0.661	0.273	0.211	0.22	0.0234	0.0115	1.02	0.941	0.992	0.0667	0.0697	0.254	0.234	0.195	0.0599	0.0702
BEN	0.864	0.614		0.631	0.678	0.339	0.306	0.32	0.257	0.164	0.0276	0.0636	0.151	0.0617	0.0356	0.716	0.801	0.678	0.522	0.337
EPLC-272H	0.735	0.577	0.769	0.619	0.499	0.344	0.37	0.37	0.15	0.217			1.06	0.0971	0.0714	0.378	0.348	0.321	0.0848	0.065
LK-2	1.12	1.28	1.51	1.26	1.11	0.242	0.246	0.226	0.139	0.0998	0.828	0.878	0.238	0.172	0.174	0.274	0.384	0.281	0.227	0.15
